From ChEMBL document CHEMBL3627684, “Discovery of spirocyclic-diamine inhibitors of mammalian acetyl CoA-carboxylase” (Bioorg Med Chem Lett, 2015)

Columns and labels:
[1] = target: Acetyl-CoA carboxylase 1 (Rattus norvegicus, UniProt P11497); assay: Inhibition of rat liver ACC1 preincubated for 10 mins followed by acetyl-CoA/KHCO3/[14C]-NaHCO3/ATP addition measured after 20 mins by liquid scintillation counting analysis
[2] = target: Acetyl-CoA carboxylase 2 (Homo sapiens, UniProt O00763); assay: Inhibition of recombinant human ACC2 expressed in CHO cells by fluorescence polarization assay
Chain of Acetyl-CoA carboxylase 2 (O00763 whole entry): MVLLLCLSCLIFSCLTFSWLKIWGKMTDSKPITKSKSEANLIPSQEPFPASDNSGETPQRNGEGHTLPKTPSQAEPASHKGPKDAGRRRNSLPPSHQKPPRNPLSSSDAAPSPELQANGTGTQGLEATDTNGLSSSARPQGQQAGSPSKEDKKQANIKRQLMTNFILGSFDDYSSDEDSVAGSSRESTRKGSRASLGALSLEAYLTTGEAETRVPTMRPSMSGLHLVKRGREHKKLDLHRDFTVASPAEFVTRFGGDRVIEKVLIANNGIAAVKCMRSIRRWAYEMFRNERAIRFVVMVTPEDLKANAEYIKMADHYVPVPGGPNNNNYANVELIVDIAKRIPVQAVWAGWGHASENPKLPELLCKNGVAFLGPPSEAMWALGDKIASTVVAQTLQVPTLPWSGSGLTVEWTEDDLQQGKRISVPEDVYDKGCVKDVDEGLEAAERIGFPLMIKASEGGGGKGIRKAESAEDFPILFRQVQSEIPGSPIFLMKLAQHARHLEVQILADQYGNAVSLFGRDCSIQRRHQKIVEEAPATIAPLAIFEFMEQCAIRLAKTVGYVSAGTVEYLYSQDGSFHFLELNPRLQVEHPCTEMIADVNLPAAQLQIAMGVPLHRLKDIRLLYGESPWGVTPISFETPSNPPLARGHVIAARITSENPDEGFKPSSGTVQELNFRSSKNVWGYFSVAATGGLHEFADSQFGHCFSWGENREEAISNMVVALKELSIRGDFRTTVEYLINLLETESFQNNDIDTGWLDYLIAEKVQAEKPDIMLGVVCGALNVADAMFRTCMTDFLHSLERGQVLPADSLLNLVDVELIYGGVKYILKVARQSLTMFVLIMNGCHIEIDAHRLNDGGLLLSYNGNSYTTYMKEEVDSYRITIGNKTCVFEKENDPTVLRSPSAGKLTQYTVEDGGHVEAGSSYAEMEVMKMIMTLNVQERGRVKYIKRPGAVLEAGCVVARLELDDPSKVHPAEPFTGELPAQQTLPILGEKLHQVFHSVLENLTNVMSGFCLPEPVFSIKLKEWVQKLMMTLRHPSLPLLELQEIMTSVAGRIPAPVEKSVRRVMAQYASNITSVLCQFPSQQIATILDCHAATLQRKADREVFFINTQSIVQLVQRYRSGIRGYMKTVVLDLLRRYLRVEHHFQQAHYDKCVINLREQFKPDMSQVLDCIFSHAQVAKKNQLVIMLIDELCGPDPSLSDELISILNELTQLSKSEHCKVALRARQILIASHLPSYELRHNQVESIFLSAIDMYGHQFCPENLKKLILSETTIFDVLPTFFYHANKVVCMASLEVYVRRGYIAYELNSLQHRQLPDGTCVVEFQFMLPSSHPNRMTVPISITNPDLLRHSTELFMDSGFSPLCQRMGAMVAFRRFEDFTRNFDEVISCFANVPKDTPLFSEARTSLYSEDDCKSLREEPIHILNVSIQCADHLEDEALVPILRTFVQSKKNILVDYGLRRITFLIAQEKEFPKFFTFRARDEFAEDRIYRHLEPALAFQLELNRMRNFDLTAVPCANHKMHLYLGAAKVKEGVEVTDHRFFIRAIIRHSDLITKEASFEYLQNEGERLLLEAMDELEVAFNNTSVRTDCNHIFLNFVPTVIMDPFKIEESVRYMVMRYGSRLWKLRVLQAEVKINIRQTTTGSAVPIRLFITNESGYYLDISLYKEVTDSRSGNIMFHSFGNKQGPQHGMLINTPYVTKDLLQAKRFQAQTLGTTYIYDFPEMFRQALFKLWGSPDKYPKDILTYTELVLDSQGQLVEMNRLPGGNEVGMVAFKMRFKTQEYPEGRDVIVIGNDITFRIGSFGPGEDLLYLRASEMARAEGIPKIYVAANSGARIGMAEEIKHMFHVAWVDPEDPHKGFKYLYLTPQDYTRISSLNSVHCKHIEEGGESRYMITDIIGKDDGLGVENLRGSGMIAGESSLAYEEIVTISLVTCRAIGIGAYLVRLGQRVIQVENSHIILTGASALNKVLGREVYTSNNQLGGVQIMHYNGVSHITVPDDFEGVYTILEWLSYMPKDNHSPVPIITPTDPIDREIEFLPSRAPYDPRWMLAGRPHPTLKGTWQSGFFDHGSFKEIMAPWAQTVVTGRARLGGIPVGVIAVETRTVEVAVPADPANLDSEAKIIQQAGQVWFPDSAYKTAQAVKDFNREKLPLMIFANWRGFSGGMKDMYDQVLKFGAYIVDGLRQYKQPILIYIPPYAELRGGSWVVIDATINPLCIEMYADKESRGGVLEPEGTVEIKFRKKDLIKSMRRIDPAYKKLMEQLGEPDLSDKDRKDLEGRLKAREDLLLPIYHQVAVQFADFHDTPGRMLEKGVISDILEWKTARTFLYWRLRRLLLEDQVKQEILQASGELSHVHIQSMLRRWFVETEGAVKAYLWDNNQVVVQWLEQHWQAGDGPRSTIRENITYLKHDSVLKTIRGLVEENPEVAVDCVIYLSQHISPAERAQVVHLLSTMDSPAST

[3] = Intrinsic clearance in human liver microsomes
[4] = Inhibition of acetyl-CoA carboxylase in rat cryopreserved hepatocytes assessed as suppression of de novo lipogenesis; assay type: cell-based; details: hepatocyte
[5] = Plasma clearance in rat; assay type: ADME, organism-based

Row | Structure (SMILES) | IC50 [1] | IC50 [2] | CLint scaled [3] | IC50 [4] | clearance [5]
1 | Cc1cc(C(=O)N2CCC3(CCN(C(=O)OCc4ccccc4)C3)CC2)cc2cn[nH]c12 | 2100 nM | 4000 nM |  |  | 
2 | Cc1cc(C(=O)N2CCC3(CC2)CN(C(=O)OC(C)(C)C)C3)cc2cn[nH]c12 | 450 nM | 800 nM | < 9 mL/min/kg |  | 
3 | Cc1cc(C(=O)N2CCC3(CC2)CN(C(=O)OCC(C)(C)C)C3)cc2cn[nH]c12 | 310 nM | 1400 nM |  |  | 
4 | Cc1cc(C(=O)N2CCC3(CC2C)CN(C(=O)OC(C)(C)C)C3)cc2cn[nH]c12 (stereo not drawn) | 4800 nM | 9200 nM | 46 mL/min/kg |  | 
5 | Cc1cc(C(=O)N2CCC3(CC2)CN(C(=O)O[C@H](C)c2ccccc2)C3)cc2cn[nH]c12 | 310 nM | 880 nM | 64 mL/min/kg |  | 
6 | Cc1cc(C(=O)N2CCC3(CCN(C(=O)OC(C)(C)C)C3)CC2)cc2cn[nH]c12 | 510 nM | 1000 nM | 32 mL/min/kg |  | 
7 | Cc1cc(C(=O)N2CCC3(CCN(C(=O)OCC(C)(C)C)C3)CC2)cc2cn[nH]c12 | 220 nM | 800 nM | 117 mL/min/kg |  | 
8 | Cc1cc(C(=O)N2CCC3(CC2)CCN(C(=O)OCC(C)(C)C)[C@@H]3C)cc2cn[nH]c12 | 26 nM | 200 nM |  |  | 
9 | Cc1cc(C(=O)N2CCC3(CCN(C(=O)OC(C)(C)C)C3)C2)cc2cn[nH]c12 (stereo not drawn) | 11000 nM | 20000 nM |  |  | 
10 | Cc1cc(C(=O)N2CCC3(CCN(C(=O)OC(C)(C)C)CC3)C2)cc2cn[nH]c12 | 1000 nM | 2200 nM | 94 mL/min/kg |  | 
11 | Cc1cc(C(=O)N2CCC3(CCN(C(=O)O[C@H](C)c4ccccc4)C3)CC2)cc2cn[nH]c12 | 65 nM | 260 nM | 117 mL/min/kg |  | 
12 | Cc1cc(C(=O)N2CC3(CCN(C(=O)OC(C)(C)C)CC3)C2)cc2cn[nH]c12 | 810 nM | 2400 nM | 19 mL/min/kg |  | 
13 | Cc1cc(C(=O)N2CCC3(CCN(C(=O)OC(C)(C)C)C3)CC2C)cc2cn[nH]c12 (stereo in doubt; 3.3.2) | 9300 nM | > 17000 nM |  |  | 
14 | Cc1cc(C(=O)N2CCC3(CCN(C(=O)OC(C)(C)C)C3)CC2C)cc2cn[nH]c12 (stereo in doubt; 3.3.1) | 7900 nM | > 14000 nM |  |  | 
15 | Cc1cc(C(=O)N2CCC3(CC2C)C[C@H](C)N(C(=O)OCC(C)(C)C)C3)cc2cn[nH]c12 (stereo partly drawn) | 2200 nM | 5500 nM |  |  | 
16 | Cc1cc(C(=O)N2CC3(CN(C(=O)OC(C)(C)C)C3)C2)cc2cn[nH]c12 | > 30000 nM | > 10000 nM |  |  | 
17 | Cc1cc(C(=O)N2CCC3(CC2C)C[C@@H](C)N(C(=O)OCC(C)(C)C)C3)cc2cn[nH]c12 (stereo partly drawn) | 140 nM | 1100 nM |  |  | 
18 | Cc1cc(C(=O)N2CCC3(CC2)CN(C(=O)OC(C)(C)C)C3C)cc2cn[nH]c12 (stereo not drawn) | 240 nM | 900 nM | 60 mL/min/kg |  | 
19 | CC(C)(C)n1cc2c(n1)C(=O)CC1(CCN(C(=O)c3ccc4[nH]ncc4c3)CC1)O2 |  |  |  | 93 nM | 
20 | Cc1cc(C(=O)N2CCC3(CCN(C(=O)OC(C)C)C3)CC2)cc2cn[nH]c12 | 1600 nM | 4500 nM |  |  | 
21 | Cc1cc(C(=O)N2CCC3(CC2)CCN(C(=O)OCC(C)(C)C)[C@H]3C)cc2cn[nH]c12 | 16 nM | 110 nM | 106 mL/min/kg | 300 nM | 52 mL/min/kg
